In article PMC11420244, “Evaluation of the effect of modafinil on the pharmacokinetics of encorafenib and binimetinib in patients with BRAF V600-mutant advanced solid tumors” (Cancer Chemotherapy and Pharmacology, 2024):
Read-outs that look alike come from different tables or passages of the source.

Key:
[1] = Phase 1 clinical DDI study: steady-state plasma PK (noncompartmental analysis) with and without modafinil; assay type: in vivo, Human; settings: for MRAUC last (metabolite ratio), Median (range) / MRC max (metabolite ratio), Median (range): metabolite to parent; for AUClast, Median (range) / Cmax, Median (range) / T1/2, Median (range) / Tmax, Median (range) / Tmax / AUC(0-t) / Cmax / half-life: plasma, patients; for Tmax / AUC(0-t) / Cmax / half-life: human; for Tmax: read-out: Tmax, Median (range)
Method: Encorafenib 450 mg QD and binimetinib 45 mg BID were administered starting on Day 1. Patients then received continuous treatment of 400 mg QD modafinil on Day 15 through Day 21. Blood samples for measurement of plasma concentrations of encorafenib (and its metabolite, LHY746) and binimetinib (and its active metabolite, AR00426032), were collected at 0, 1, 2, 3, 4, 6 and 8 h post dose on Day 14 and Day 21.
Human PK plasma samples were analyzed for quantitation of all PK analytes at PPD (Middleton, Wisconsin, US) using validated, sensitive, and specific HPLC/MS/MS methods in compliance with laboratory SOPs.
PK parameters including, but not limited to, Cmax and AUClast were calculated for each participant using noncompartmental analysis (NCA) methods using the WinNonlin software package (Phoenix WinNonlin Professional, version 8.0 Pharsight Corporation, Mountain View, California) for PK analytes including encorafenib and its metabolite LHY746, and binimetinib and its metabolite AR00426032.
All patients who received at least one dose of any study drug were included in the Safety Set population. The Evaluable PK Set included all patients with sufficient concentration data to calculate at least one PK parameter for encorafenib and binimetinib on Days 14 and 21. Patients who discontinued, missed 3 or more consecutive doses of encorafenib prior to completion of the last PK sampling on Day 14, or required a dose reduction of encorafenib prior to completion of the last PK sampling on Day 14 were excluded from the Evaluable PK set. In addition, patients who missed any dose of study drugs on any of the PK days, or who vomited within 4 h after dosing on any of the PK days were excluded from Evaluable PK set.
An analysis of variance (ANOVA) was performed on the natural log (ln)-transformed Cmax and AUClast of encorafenib, LHY746, binimetinib, and AR00426032. The least squares means (LSM) geometric mean ratio (GMR) and associated 90% confidence interval (CI) for each PK parameter were calculated using the exponentiation of the difference between treatment LSM from the analyses on the ln-transformed parameters and expressed as a percentage of Day 21 relative to Day 14.

[2] = cited from earlier work
[3] = cited from earlier work; for Effect of Strong CYP3A Inducer on AUC (decrease): Rifampin
[4] = Reported DDI studies of CYP3A substrates with strong, moderate or weak CYP3A inducers; assay type: in vivo
Excerpt: (§1) Another strategy to predict the effect strong induction may have on encorafenib PK, or the PK of other CYP3A substrates, but with fewer assumptions was proposed in a review by Molenaar-Kuijsten et al.. Based on a review of 12 approved oral anticancer drugs primarily metabolized by CYP3A, if no clinical DDI data were available for moderate inducers, an effect of 50% compared to strong inducers could be assumed. After expanding the dataset of Molenaar-Kuijsten to include 3 additional approved oral anti-cancer drugs (fuzuloparib, pirtobrutinib, and fedratinib) metabolized by CYP3A, we applied this approach in the opposite direction (lack of clinical data for the effect of strong CYP3A4 inducers) given available clinical DDI data generated in this study for encorafenib (Table 3). The median ratio of the decrease for a strong inducer to a moderate inducer was 1.56 and ranged from 1.15 for cobimetinib to 2.43 for palbociclib. […] The upper end of this range is consistent with PBPK simulations conducted prior to the study, indicating encorafenib exposures would decrease by ∼ 58% in combination with rifampin (based on a model with some simplifying assumptions) and would also be consistent with the recommendations based on in vitro data to avoid strong inducers in combination with encorafenib. This approach to managing potential coadminsitration of encorafenib with a strong inducer of CYP3A is the most conservative due to lack of more precise extrapolation methods and clincial data.

CYP2C19 = settings: cited from earlier work
[5] = cited from earlier work; remark: listed apart in the source
[6] = Extrapolation of strong CYP3A inducer effect on encorafenib from the moderate inducer effect (strong/moderate ratio approach); settings: extrapolated from the modafinil effect with strong/moderate ratios 1.15 to 2.43
Excerpt: as §1, with “This approach to managing potential coadminsitration of encorafenib with a strong inducer of CYP3A is the most conservative due to lack of more precise extrapolation methods and clincial data.” left out

[7] = design: method as in PMID 37837178; settings: cited from earlier work
CYP3A4 = test system: CYP3A4; design: method as in earlier work; settings: human liver microsomes; cited from earlier work
[8] = design: method as in PMID 28611198; settings: cited from earlier work
[9] = Day 14, without modafinil, steady state
[10] = Day 21 (with modafinil) relative to Day 14 (without)
[11] = Day 21, with modafinil 400 mg QD
[12] = Day 21, with modafinil 400 mg QD, steady state

Compound: O=C(NOCCO)c1cc2[nH]cnc2c(F)c1Nc1ccc(Br)cc1F [AR00426032]
- MRAUC last (metabolite ratio), Median (range) ([1]; Day 14, without modafinil): 0.0482 (0.0182–0.138)
- MRC max (metabolite ratio), Median (range) ([1]; Day 14, without modafinil): 0.0367 (0.0165–0.0926)
- AUClast, Median (range) [1, 9]: 127 (36.1–226) ng*hr/mL
- Cmax, Median (range) [1, 9]: 27.5 (8.23–53.4) ng/mL
- T1/2, Median (range) [1, 9]: 5.44 (2.57–8.86) hr
- Tmax, Median (range) [1, 9]: 2.00 (0.88-3.00) hr
- AUClast GMR (geometric mean ratio) [1, 10]: 0.977
- Cmax GMR (geometric mean ratio) [1, 10]: 0.954
- MRAUClast GMR [1, 10]: 1.02
- MRCmax GMR [1, 10]: 0.950
- MRAUC last (metabolite ratio), Median (range) [1, 11]: 0.0440 (0.0275–0.123)
- MRC max (metabolite ratio), Median (range) [1, 11]: 0.0335 (0.0192–0.0850)
- AUClast, Median (range) [1, 12]: 111 (70.9–197) ng*hr/mL
- Cmax, Median (range) [1, 12]: 23.8 (13.7–40.0) ng/mL
- T1/2, Median (range) [1, 12]: 5.75 (2.88–18.1) hr
- Tmax, Median (range) [1, 12]: 2.00 (0.95–2.23) hr
- Time at which mean plasma concentrations typically reach peak levels, postdose ([1]; Days 14 and 21, steady state): 2 h

Compound: O=C1Nc2ccc(Cl)cc2[C@@](C#CC2CC2)(C(F)(F)F)O1 [efavirenz]
- Patients with neuropsychiatric effects [2]: up to 70%

Compound: Cc1cc(Nc2ncc(Cl)c(Nc3ccccc3S(=O)(=O)C(C)C)n2)c(OC(C)C)cc1C1CCNCC1 [Ceritinib]
- Effect of Moderate CYP3A Inducer on AUC (decrease) ([3]; Efavirenz): ↓ 43%
- Effect of Strong CYP3A Inducer on AUC (decrease) [3]: ↓ 68.5%
- Strong CYP3A Inducer Effect /Moderate CYP3A Inducer Effect ([4]; ratio of AUC decreases): 1.59

Compound: COC(=O)N[C@@H](C)CNc1nccc(-c2cn(C(C)C)nc2-c2cc(Cl)cc(NS(C)(=O)=O)c2F)n1 [Encorafenib, encorafenib]
- Contribution of CYP2C19 to oxidative metabolism (CYP2C19): ~16%
- Simulated decrease of exposures in combination with rifampin ([5]; PBPK simulations conducted prior to the study): ~58%
- Expected reduction in AUC with a strong CYP3A inducer [6]: 28–58%
- Increase in exposures on coadministration of moderate CYP3A4 inhibitor diltiazem [7]: 2 fold
- Increase in exposures on coadministration of strong CYP3A inhibitor posaconazole [7]: 3 fold
- Contribution of CYP3A4 to total oxidative clearance (CYP3A4): ~83%
- AUClast GMR (geometric mean ratio) [1, 10]: 0.762
- Cmax GMR (geometric mean ratio) [1, 10]: 0.798
- Effect of steady-state modafinil on exposure/PK (in words) ([1]; Day 21 vs Day 14, modafinil 400 mg QD): weak effect
- Tmax ([1]; oral, Day 14, without modafinil, steady state): 1 h
- Tmax ([1]; oral, Day 21, with modafinil 400 mg QD, steady state): 1 h
- AUC(0-t) ([1]; oral, 400 mg, Day 21, with modafinil 400 mg QD, steady state, read-out: AUClast, GM (CV%)): 9100 ng·h/mL
- AUC(0-t) ([1]; oral, 400 mg, Day 21, with modafinil 400 mg QD, steady state, read-out: AUClast, Median (range)): 10000 ng·h/mL
- Cmax ([1]; oral, 400 mg, Day 21, with modafinil 400 mg QD, steady state, read-out: Cmax, Median (range)): 2750 ng/mL
- half-life ([1]; oral, 400 mg, Day 21, with modafinil 400 mg QD, steady state, read-out: T1/2, GM (CV%) (converted)): 3.57 h
- half-life ([1]; oral, 400 mg, Day 21, with modafinil 400 mg QD, steady state, read-out: T1/2, Median (range) (converted)): 3.8 h
- AUC(0-t) ([1]; oral, Day 14, without modafinil, steady state, read-out: AUClast, GM (CV%)): 11900 ng·h/mL
- AUC(0-t) ([1]; oral, Day 14, without modafinil, steady state, read-out: AUClast, Median (range)): 11800 ng·h/mL
- Cmax ([1]; oral, Day 14, without modafinil, steady state, read-out: Cmax, Median (range)): 3560 ng/mL
- half-life ([1]; oral, Day 14, without modafinil, steady state, read-out: T1/2, GM (CV%) (converted)): 3.48 h
- half-life ([1]; oral, Day 14, without modafinil, steady state, read-out: T1/2, Median (range) (converted)): 3.5 h
- Cmax ([1]; po, Day 14, without modafinil, steady state, encorafenib 450 mg QD + binimetinib 45 mg BID oral, read-out: Cmax, GM (CV%)): 3540 ng/mL
- Cmax ([1]; po, Day 21, with modafinil 400 mg QD Days 15-21, steady state, encorafenib 450 mg QD + binimetinib 45 mg BID oral, read-out: Cmax, GM (CV%)): 2830 ng/mL
- Lower exposure at steady-state compared to following a single dose (auto-induction of CYP3A4) [8]: approximately 50%

Compound: O=C(c1cc(Cc2n[nH]c(=O)c3ccccc23)ccc1F)N1CCN(C(=O)C2CC2)CC1 [Olaparib]
- Effect of Moderate CYP3A Inducer on AUC (decrease) ([3]; Efavirenz): ↓ 57.3%
- Strong CYP3A Inducer Effect /Moderate CYP3A Inducer Effect ([4]; ratio of AUC decreases): 1.38

Compound: NC(=O)C[S+]([O-])C(c1ccccc1)c1ccccc1 (stereo not shown) [modafinil]
- Patients with headache (only observed AE above this frequency) [2]: > 15%

Compound: Cc1nnc2n1-c1ccc(Cl)cc1C(c1ccccc1Cl)=NC2 [triazolam]
- Decrease on mean AUCinf with modafinil ([3]; modafinil 200 mg for 7 days followed by 400 mg for 21 days): 59%

Compound: Cc1cnc(Nc2ccc(OCCN3CCCC3)cc2)nc1Nc1cccc(S(=O)(=O)NC(C)(C)C)c1 [Fedratinib]
- Effect of Moderate CYP3A Inducer on AUC (decrease) ([3]; Efavirenz): ↓ 47%
- Effect of Strong CYP3A Inducer on AUC (decrease) [3]: ↓ 81%
- Strong CYP3A Inducer Effect /Moderate CYP3A Inducer Effect ([4]; ratio of AUC decreases): 1.72

Compound: O=C(c1ccc(F)c(F)c1Nc1ccc(I)cc1F)N1CC(O)([C@@H]2CCCCN2)C1 [Cobimetinib]
- Effect of Moderate CYP3A Inducer on AUC (decrease) ([3]; Efavirenz): ↓ 72%
- Effect of Strong CYP3A Inducer on AUC (decrease) [3]: ↓ 83%
- Reduction in exposure in combination with weak CYP3A inducer vemurafenib ([3]; in vivo): 13%
- Strong CYP3A Inducer Effect /Moderate CYP3A Inducer Effect ([4]; ratio of AUC decreases): 1.15
- Predicted reduction in AUC with moderate CYP3A inducer ([5]; PBPK modeling): 72%
- Predicted reduction in AUC with strong CYP3A inducer ([5]; PBPK modeling): 83%

Compound: COc1ccc(F)cc1C(=O)NCc1ccc(-c2nn([C@@H](C)C(F)(F)F)c(N)c2C(N)=O)cc1 [Pirtobrutinib]
- Effect of Moderate CYP3A Inducer on AUC (decrease) ([3]; Efavirenz): ↓ 49%
- Effect of Strong CYP3A Inducer on AUC (decrease) [3]: ↓ 71%
- Strong CYP3A Inducer Effect /Moderate CYP3A Inducer Effect ([4]; ratio of AUC decreases): 1.45

Compound: O=C(c1cc(Cc2n[nH]c(=O)c3ccccc23)ccc1F)N1CCn2nc(C(F)(F)F)nc2C1 [Fuzuloparib]
- Effect of Moderate CYP3A Inducer on AUC (decrease) ([3]; Efavirenz): ↓ 22%
- Effect of Strong CYP3A Inducer on AUC (decrease) [3]: ↓ 32%
- Strong CYP3A Inducer Effect /Moderate CYP3A Inducer Effect ([4]; ratio of AUC decreases): 1.45

Compound: CC(=O)c1c(C)c2cnc(Nc3ccc(N4CCNCC4)cn3)nc2n(C2CCCC2)c1=O [Palbociclib]
- Effect of Moderate CYP3A Inducer on AUC (decrease) ([3]; Efavirenz): 38%
- Effect of Moderate CYP3A Inducer on AUC (decrease) ([3]; Modafinil): 32%
- Effect of Strong CYP3A Inducer on AUC (decrease) [3]: ↓ 85.2%
- Effect of Moderate CYP3A Inducer on AUC (decrease), mean ([3]; mean of modafinil and efavirenz): ↓ 35% (mean)
- Strong CYP3A Inducer Effect /Moderate CYP3A Inducer Effect ([4]; ratio of AUC decreases): 2.43

Compound: Cc1c(C(=O)Nc2ccc(N3C[C@@H](C)O[C@@H](C)C3)nc2)cccc1-c1ccc(OC(F)(F)F)cc1 [Sonidegib]
- Effect of Moderate CYP3A Inducer on AUC (decrease) ([3]; Efavirenz): ↓ 49%
- Effect of Strong CYP3A Inducer on AUC (decrease) [3]: ↓ 76.6%
- Strong CYP3A Inducer Effect /Moderate CYP3A Inducer Effect ([4]; ratio of AUC decreases): 1.56

Compound: C=CC(=O)Nc1cc(Nc2nccc(-c3cn(C)c4ccccc34)n2)c(OC)cc1N(C)CCN(C)C [Osimertinib]
- Effect of Moderate CYP3A Inducer on AUC (decrease) ([3]; Efavirenz): ↓ 42%
- Effect of Strong CYP3A Inducer on AUC (decrease) [3]: ↓ 78.5%
- Effect of Strong CYP3A Inducer on AUC (decrease) ([3]; listed as osimertinib): 87%
- Strong CYP3A Inducer Effect /Moderate CYP3A Inducer Effect ([4]; human, in vivo): 1.87
